Molecules are shown by their SMILES. Read-outs that look alike come from different tables or passages of the source. A value given as a limit tells only on which side of the number the result lay.

In assay [1] the target is T1, complement C5a receptor 1 (C5aR1) (Homo sapiens, UniProt P21730).
T1 construct: β-galactosidase fragment (PathHunter enzyme complementation); host or cells: CHO-K1 (PathHunter CHO-K1 C5aR1 β-arrestin cell line)
T1 sequence (P21730 1-350): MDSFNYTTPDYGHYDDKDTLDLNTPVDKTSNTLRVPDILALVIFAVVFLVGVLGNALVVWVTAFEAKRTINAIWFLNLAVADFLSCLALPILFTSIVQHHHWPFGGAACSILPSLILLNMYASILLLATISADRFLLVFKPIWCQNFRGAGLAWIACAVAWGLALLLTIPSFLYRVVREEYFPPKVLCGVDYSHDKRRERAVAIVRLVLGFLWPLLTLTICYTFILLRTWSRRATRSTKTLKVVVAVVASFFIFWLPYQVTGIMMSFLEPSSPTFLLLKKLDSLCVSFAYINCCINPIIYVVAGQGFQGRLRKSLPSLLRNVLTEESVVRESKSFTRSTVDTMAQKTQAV
Kind of assay: β-arrestin recruitment via C5aR1 activation in live CHO-K1 cells (PathHunter), antagonist mode. In kind it is cell-based. The settings on record: antagonist mode; recombinant hC5a (EC90) as competing natural agonist; live CHO-K1 cells; read-out: [Antagonist] B-arrestin2 recruitment: Average IC50. The method in brief:
(§1)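 Live CHO-K1 cells carry two galactosidase enzyme fragments, one fused to β-arrestin and one to C5aR1, so that β-arrestin recruitment restores enzyme activity. Agonist mode tests compounds alone. Antagonist mode tests them against recombinant hC5a at EC90, and IC50 values are reported in binned ranges.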
On the technique in general: Recruitment of arrestin is a read-out of receptor activation apart from second messengers.

Assay [2] addresses T1, complement C5a receptor 1 (C5aR1). Kind of assay: β-arrestin recruitment via C5aR1 activation in live CHO-K1 cells (PathHunter), agonist mode. In kind it is cell-based. The essentials:
as §1

A word on the IC50: it is the concentration at which inhibition is half-maximal. For `Cc1ccc2cc([C@H]3CC[C@H](c4cnccc4C(F)(F)F)CC3)c(=O)n(Cc3ncccc3OC(F)(F)F)c2n1` [compound 247, 7-Methyl-1-((3-(trifluoromethoxy)pyridin-2-yl)methyl)-3-((1r,4r)-4-(4-(trifluoromethyl)pyridin-3-yl)cyclohexyl)-1,8-naphthyridin-2(1H)-one], the IC50 in assay [1] is below 0.5 µM. For the same compound, the “[Agonist] B-arrestin2 recruitment: Average EC50 (nM)” value (“[Agonist] B-arrestin2 recruitment” for short) in assay [2] (at 10 μM) is reported as “Non-Active at 10 μM”.

With `Cc1ccc2cc([C@H]3CC[C@H](c4cnccc4C(F)(F)F)CC3)c(=O)n(Cc3ncccc3C3CC3)c2n1` [compound 248, 1-((3-Cyclopropylpyridin-2-yl)methyl)-7-methyl-3-((1r,4r)-4-(4-(trifluoromethyl)pyridin-3-yl)cyclohexyl)-1,8-naphthyridin-2(1H)-one], the IC50 in assay [1] was below 0.5 µM. Besides, in assay [2] (at 10 μM), the “[Agonist] B-arrestin2 recruitment” value is “Non-Active at 10 μM”.

As to `Cc1cnc2cc([C@H]3CC[C@H](c4cnsc4C)CC3)c(=O)n(Cc3ncccc3C(F)(F)F)c2n1` [compound 249, 3-Methyl-7-((1r,4r)-4-(5-methylisothiazol-4-yl)cyclohexyl)-5-((3-(trifluoromethyl)pyridin-2-yl)methyl)pyrido[2,3-b]pyrazin-6(5H)-one], the IC50 in assay [1] was below 0.5 µM. Further, the “[Agonist] B-arrestin2 recruitment” value in assay [2] (at 10 μM) is on record as “Non-Active at 10 μM”.

As for `Cc1cnc2cc([C@H]3CC[C@H](c4c(F)cccc4F)CC3)c(=O)n(Cc3ncccc3C(C)(F)F)c2n1` [compound 250, 5-((3-(1,1-Difluoroethyl)pyridin-2-yl)methyl)-7-((1r,4r)-4-(2,6-difluorophenyl)cyclohexyl)-3-methylpyrido[2,3-b]pyrazin-6(5H)-one], the IC50 in assay [1] was below 0.5 µM. For the same compound, the “[Agonist] B-arrestin2 recruitment” value in assay [2] (at 10 μM) was “Non-Active at 10 μM”.

Regarding `Cc1ccc2cc([C@H]3CC[C@H](c4cnccc4C(F)(F)F)CC3)c(=O)n(Cc3ncccc3C(F)(F)F)c2n1` [compound 251, 7-Methyl-1-((3-(trifluoromethyl)pyridin-2-yl)methyl)-3-((1r,4r)-4-(4-(trifluoromethyl)pyridin-3-yl)cyclohexyl)-1,8-naphthyridin-2(1H)-one], in assay [1], the IC50 was below 0.5 µM. In assay [2] (at 10 μM), the “[Agonist] B-arrestin2 recruitment” value is “Non-Active at 10 μM”.

For the compound `COc1nccc(C)c1[C@H]1CC[C@H](c2cc3ccc(C)nc3n(Cc3ncccc3C3CC3)c2=O)CC1` [compound 252, 1-((3-Cyclopropylpyridin-2-yl)methyl)-3-((1r,4r)-4-(2-methoxy-4-methylpyridin-3-yl)cyclohexyl)-7-methyl-1,8-naphthyridin-2(1H)-one], in assay [1], the IC50 was below 0.5 µM. For the same compound, the “[Agonist] B-arrestin2 recruitment” value in assay [2] (at 10 μM) is on record as “Non-Active at 10 μM”.

`Cc1cnc2cc([C@H]3CC[C@H](c4cnsc4C)CC3)c(=O)n(Cc3ncccc3OC(F)(F)F)c2n1` [compound 253, 3-Methyl-7-[(1r,4r)-4-(5-methyl-4-isothiazolyl)cyclohexyl]-5-[(3-trifluoromethoxy-2-pyridyl)methyl]-1,4,5-triaza-6(5H)-naphthalenone]: the IC50 in assay [1] was below 0.5 µM. Also, the “[Agonist] B-arrestin2 recruitment” value in assay [2] was “Non-Active”.

As to `Cc1ccc2cc([C@H]3CC[C@H](c4cnccc4C(F)(F)F)CC3)c(=O)n(Cc3ncccc3C(C)(F)F)c2n1` [compound 254, 1-{[3-(1,1-Difluoroethyl)-2-pyridyl]methyl}-7-methyl-3-{(1r,4r)-4-[4-(trifluoromethyl)-3-pyridyl]cyclohexyl}-1,8-diaza-2(1H)-naphthalenone], the concentration for half-maximal inhibition (IC50) in assay [1] is below 0.5 µM. Further, in assay [2], the “[Agonist] B-arrestin2 recruitment” value was “Non-Active”.

With `Cc1ccc2cc([C@H]3CC[C@H](c4c(C)ccnc4F)CC3)c(=O)n(Cc3ncccc3OC(F)(F)F)c2n1` [compound 255, 7-Methyl-3-[(1r,4r)-4-(2-fluoro-4-methyl-3-pyridyl)cyclohexyl]-1-[(3-trifluoromethoxy-2-pyridyl)methyl]-1,8-diaza-2(1H)-naphthalenone], the IC50 in assay [1] was below 0.5 µM. In addition, the “[Agonist] B-arrestin2 recruitment” value in assay [2] is listed as “Non-Active”.

Consider `COc1nccc(C)c1[C@H]1CC[C@H](c2cc3ccc(C)nc3n(Cc3ncccc3C(C)(F)F)c2=O)CC1` [compound 256, 1-{[3-(1,1-Difluoroethyl)-2-pyridyl]methyl}-7-methyl-3-[(1r,4r)-4-(2-methoxy-4-methyl-3-pyridyl)cyclohexyl]-1,8-diaza-2(1H)-naphthalenone], for which the IC50 in assay [1] is below 0.5 µM. In assay [2], the “[Agonist] B-arrestin2 recruitment” value is recorded as “Non-Active”.

`Cc1ccc2cc([C@H]3CC[C@H](c4c(C)cccc4F)CC3)c(=O)n(Cc3nccnc3C3CC3)c2n1` [compound 257, 1-[(3-Cyclopropyl-2-pyrazinyl)methyl]-7-methyl-3-[(1r,4r)-4-(2-fluoro-6-tolyl)cyclohexyl]-1,8-diaza-2(1H)-naphthalenone]: the IC50 in assay [1] was below 0.5 µM. In assay [2], the “[Agonist] B-arrestin2 recruitment” value is reported as “Non-Active”.

With `Cc1ccc2cc([C@H]3CC[C@H](c4c(C)ccnc4F)CC3)c(=O)n(Cc3ncccc3C(C)(F)F)c2n1` [compound 258, 1-((3-(1,1-difluoroethyl)pyridin-2-yl)methyl)-3-((1r,4r)-4-(2-fluoro-4-methylpyridin-3-yl)cyclohexyl)-7-methyl-1,8-naphthyridin-2(1H)-one], the IC50 in assay [1] was below 0.5 µM. Besides, the “[Agonist] B-arrestin2 recruitment” value in assay [2] is reported as “Non-Active”.

For `Cc1ccc2cc([C@H]3CC[C@H](c4c(C)ccnc4F)CC3)c(=O)n(Cc3ncccc3CC(F)(F)F)c2n1` [compound 259, 7-Methyl-3-[(1r,4r)-4-(2-fluoro-4-methyl-3-pyridyl)cyclohexyl]-1-{[3-(2,2,2-trifluoroethyl)-2-pyridyl]methyl}-1,8-diaza-2(1H)-naphthalenone], the IC50 in assay [1] was below 0.5 µM. In assay [2], the “[Agonist] B-arrestin2 recruitment” value was “Non-Active”.

On to `COc1nccc(C)c1[C@H]1CC[C@H](c2cc3ccc(C)nc3n(Cc3ncccc3CC(F)(F)F)c2=O)CC1` [compound 260, 7-Methyl-3-[(1r,4r)-4-(2-methoxy-4-methyl-3-pyridyl)cyclohexyl]-1-{[3-(2,2,2-trifluoroethyl)-2-pyridyl]methyl}-1,8-diaza-2(1H)-naphthalenone], for which the IC50 in assay [1] was below 0.5 µM. Besides, the “[Agonist] B-arrestin2 recruitment” value in assay [2] is on record as “Non-Active”.

As for `COc1nccc(C)c1[C@H]1CC[C@H](c2cc3ccc(C)nc3n(Cc3ncccc3OC(F)(F)F)c2=O)CC1` [compound 261, 7-Methyl-3-[(1r,4r)-4-(2-methoxy-4-methyl-3-pyridyl)cyclohexyl]-1-[(3-trifluoromethoxy-2-pyridyl)methyl]-1,8-diaza-2(1H)-naphthalenone], the IC50 in assay [1] was below 0.5 µM. Further, in assay [2], the “[Agonist] B-arrestin2 recruitment” value was “Non-Active”.

On to `Cc1ccc2cc([C@H]3CC[C@H](c4c(C)ccnc4F)CC3)c(=O)n(Cc3ncccc3C(F)(F)F)c2n1` [compound 262, 7-Methyl-3-[(1r,4r)-4-(2-fluoro-4-methyl-3-pyridyl)cyclohexyl]-1-{[3-(trifluoromethyl)-2-pyridyl]methyl}-1,8-diaza-2(1H)-naphthalenone], for which, in assay [1], the IC50 is below 0.5 µM. Also, the “[Agonist] B-arrestin2 recruitment” value in assay [2] is on record as “Non-Active”.

For the compound `Cc1ccc2cc([C@H]3CC[C@H](c4c(C)cccc4F)CC3)c(=O)n(Cc3nccnc3OCC(F)F)c2n1` [compound 263, 1-{[3-(2,2-Difluoroethoxy)-2-pyrazinyl]methyl}-7-methyl-3-[(1r,4r)-4-(2-fluoro-6-tolyl)cyclohexyl]-1,8-diaza-2(1H)-naphthalenone], the IC50 in assay [1] is below 0.5 µM. Also, in assay [2], the “[Agonist] B-arrestin2 recruitment” value is recorded as “Non-Active”.

Take `Cc1ccc2cc([C@H]3CC[C@H](c4c(C)cccc4F)CC3)c(=O)n(Cc3nccnc3OCC(F)(F)F)c2n1` [compound 264, 7-Methyl-3-[(1r,4r)-4-(2-fluoro-6-tolyl)cyclohexyl]-1-{[3-(2,2,2-trifluoroethoxy)-2-pyrazinyl]methyl}-1,8-diaza-2(1H)-naphthalenone]: the IC50 in assay [1] was below 0.5 µM. Further, the “[Agonist] B-arrestin2 recruitment” value in assay [2] was “Non-Active”.

As for `Cc1cnc2cc(C3CCCCC3)c(=O)n(Cc3ncccc3C(F)(F)F)c2n1` [compound 265, 7-Cyclohexyl-3-methyl-5-{[3-(trifluoromethyl)-2-pyridyl]methyl}-1,4,5-triaza-6(5H)-naphthalenone], the IC50 in assay [1] lay in the range of 0.5 to 5 µM. For the same compound, the “[Agonist] B-arrestin2 recruitment” value in assay [2] is given as “Non-Active”.

Consider `Cc1cnc2cc([C@H]3CC[C@H](c4c(F)cnc5c4cnn5C)CC3)c(=O)n(Cc3ncccc3C(F)(F)F)c2n1` [compound 266, 3-Methyl-7-[(1r,4r)-4-(5-fluoro-1-methyl-1H-1,2,7-triazainden-4-yl)cyclohexyl]-5-{[3-(trifluoromethyl)-2-pyridyl]methyl}-1,4,5-triaza-6(5H)-naphthalenone], for which the IC50 in assay [1] lay within 5 to 100 µM. The “[Agonist] B-arrestin2 recruitment” value in assay [2] is given as “Non-Active”.

Take `Cc1cccc(F)c1[C@H]1CC[C@H](c2cc3ncc(C(C)(F)F)nc3n(Cc3ncccc3C(F)(F)F)c2=O)CC1` [compound 267, 3-(1,1-Difluoroethyl)-7-[(1r,4r)-4-(2-fluoro-6-tolyl)cyclohexyl]-5-{[3-(trifluoromethyl)-2-pyridyl]methyl}-1,4,5-triaza-6(5H)-naphthalenone]: the IC50 in assay [1] was below 0.5 µM. In assay [2], the “[Agonist] B-arrestin2 recruitment” value was “Non-Active”.

The values are drawn from patent US20260317320A1, “C5AR1 ANTAGONISTS AND USES THEREOF” (Vanqua Bio, Inc., priority 2022, published 2026).
